Laboratory results as given in US20030211168A1, “Drug carrier pellet production process” (priority 2000, published 2003).
Where a name gives a salt, the structure may show the parent alone.

What was measured:
[1] = Solubility of active drug substances in water; assay type: physicochemical
[2] = Particle size of active drug substance; assay type: physicochemical; settings: drug substance raw material

SMILES	solubility [1]	Particle size [2]
COc1ccc([C@@H]2Sc3ccccc3N(CCN(C)C)C(=O)[C@@H]2OC(C)=O)cc1 [Diltiazem hydrochloride]	> 100 mg/mL	
NS(=O)(=O)c1cc(C(=O)O)c(NCc2ccco2)cc1Cl [Furosemide]		<10 μm
